Test results reported in US20180099023A1, “METHODS OF TREATING IRON OVERLOAD” (La Jolla Pharmaceutical Company, priority 2016, published 2018).

How the values were obtained:
Format in all cases: in vivo, human
[1] = test system: serum iron; experiment: Hepcidin administration in patients at risk for iron overload disorders (Example 2)
Experimental: Eighteen patients at risk for iron overload disorders (i.e., refractory or hemolytic anemia or hemochromatosis) received one or two 1-mL subcutaneous injections to achieve the desired dose level (1 mg, 5 mg, 10 mg, 20 mg, or 30 mg). Hepcidin concentration ranged from 1 to 15 mg/mL.

[2] = test system: serum iron; experiment: Serum iron after a single subcutaneous dose of hepcidin in patients (Example 1)
Description: Patients were recruited for a multi-day study to observe serum iron levels following administration of hepcidin. All patients who were recruited had either refractory or hemolytic anemia or hemochromatosis. Patients are divided into cohorts and subsequently treated with hepcidin. Treatment consisted of a single subcutaneous (SC) dose of hepcidin on Day 1. Dose escalation with new cohorts occurred only after the patients at each dose level had been observed for a minimum of 3 days and no drug related toxicity had been observed. The starting dose level was 1 mg given via SC injection on Day 1. Doses ranged from 1 mg to 30 mg. Patient cohorts and dosing can be found in Table 1:
Patients were admitted to the research unit the day before the administration of study drug and discharged following assessments 48 hours post dose. Serum iron, ferritin, transferrin, total iron binding capacity, and unsaturated iron binding capacity were measured on Day 1(baseline) and Day 7 (end of study). Serum iron was also measured at 2, 4, 8, 24, and 48 hours post dosing.

[3] = test system: serum iron; experiment: Hepcidin administration in healthy subjects (Example 3)
Experimental: This study enrolled 32 healthy adult subjects in 4 dose groups of 8 subjects per cohort, with 6 subjects assigned to hepcidin treatment and 2 subjects assigned to placebo in each cohort. The starting dose was 5 mg of hepcidin or placebo; subsequent dose groups received 10 mg, 20 mg, and 30 mg, respectively. Subjects received between one and three 1-mL subcutaneous (SC) injections to deliver the desired dose level. Hepcidin concentration was either 5 mg/mL or 10 mg/mL. For data analysis purposes, placebo subjects for all cohort groups were pooled.

[4] = Baseline (pre-dose) to Day 8/End of Study

Question: With “hepcidin: 25-amino acid peptide with the amino acid sequence set forth in SEQ ID NO:1 (DTHFPICIFCCGCCHRSKCGMCCKT)” as the substance, how does the “dose response of serum iron decrease” value ([1]; 1 mg to 30 mg SC) read?
Answer: greater decrease in serum iron at higher doses

Question: And the “Mean maximum percentage reduction in serum iron” value ([1]; 20-mg dose group, 8 hours post-dose)?
Answer: 58%

Question: And the “TSAT % level change” value [1, 4]?
Answer: Decreases

Question: What about the ferritin level change [1, 4] of the same substance?
Answer: Decreases

Question: What about the “total iron binding capacity (TIBC) change” value [1, 4] of the same substance?
Answer: Decreases

Question: And the transferrin level change [1, 4]?
Answer: Decreases

Question: What about the “serum iron levels compared to baseline” value ([1]; all five dose groups (1, 5, 10, 20, 30 mg SC)) of the same substance?
Answer: decrease in serum iron levels compared to baseline was generally observed

Question: What about the “duration of serum iron reduction” value ([1]; most patients) of the same substance?
Answer: sustained up to Day 8 in most patients

Question: And the anti-drug antibodies ([1]; patients at risk for iron overload disorders)?
Answer: No anti-drug antibodies were detected

Question: What about the “Percent Change in Serum Iron from Baseline to Hour 8” value (“Percent Change in Serum Iron” below) ([2]; 1 mg single SC dose, n = 3, patients with refractory or hemolytic anemia or hemochromatosis) of the same substance?
Answer: −14.2% (p = 0.203)

Question: What about the “dose response of serum iron reduction” value ([2]; 1 mg to 20 mg, FIG. 1, p-0.009 for dose response) of the same substance?
Answer: dose-dependent, statistically significant reduction in serum iron

Question: What about the “Percent Change in Serum Iron” value ([2]; 5 mg single SC dose, n = 3, patients with refractory or hemolytic anemia or hemochromatosis) of the same substance?
Answer: −26.7% (p = 0.380)

Question: What about the “Percent Change in Serum Iron” value ([2]; 10 mg single SC dose, n = 3, patients with refractory or hemolytic anemia or hemochromatosis) of the same substance?
Answer: −45.5% (p = 0.077)

Question: And the “reduction of serum iron from baseline to hour 8” value ([2]; 20 mg dose level, p=0.001)?
Answer: 55.7%

Question: And the “Percent Change in Serum Iron” value ([2]; 20 mg single SC dose, n = 6, patients with refractory or hemolytic anemia or hemochromatosis)?
Answer: −55.7% (p = 0.001)

Question: And the “reduction of serum iron from baseline to the end of day 7” value ([2]; subjects administered 1 mg, 5 mg, 10 mg or 20 mg, serum iron had not returned to baseline through day 7)?
Answer: 18.0%

Question: And the serum iron rebound ([2]; subjects administered at least 30 mg)?
Answer: rebound effect which resulted in above-baseline serum iron levels within 48 hours of treatment

Question: What about the “Unsaturated iron binding capacity (UIBC) change from baseline” value ([3]; Day 8) of the same substance?
Answer: no trends in changes from baseline

Question: What about the “Ferritin change from baseline” value ([3]; Day 8, all treatment groups) of the same substance?
Answer: increased

Question: And the “TSAT % change from baseline” value ([3]; Day 8, all treatment groups)?
Answer: increased

Question: And the “total iron binding capacity (TIBC) change from baseline” value ([3]; Day 8, all treatment groups)?
Answer: increased

Question: And the “transferrin change from baseline” value ([3]; Day 8, all treatment groups)?
Answer: increased

Question: What about the anti-drug antibodies ([3]; healthy subjects) of the same substance?
Answer: No anti-drug antibodies were detected

Question: And the “maximum reduction in serum iron, 20 mg versus 30 mg” value ([3]; healthy subjects)?
Answer: no apparent difference

Question: What about the “time for serum iron levels to return to baseline” value ([3]; healthy subjects) of the same substance?
Answer: < 48 h

Question: What about the “dose response of serum iron reduction” value ([3]; healthy subjects, 5 to 30 mg) of the same substance?
Answer: larger reductions in serum iron generally associated with increases in dose up to 20 mg
